Data as given in patent publication US8846730B2, “Compounds as cannabinoid receptor ligands” (priority 2008, dated 2014).
Where two headings read alike, the source gives them in different places.

Columns and labels:
human CB2 receptors = human CB2 receptors (Homo sapiens (Human), UniProt P34972); assay: human CB2 radioligand binding assay ([3H]CP 55,940 competition); conditions: HEK293 membranes, 0.5 nM [3H]CP 55,940; read-out: human CB2 (Ki)
Protocol: (§1) The CB1 and CB2 radioligand binding assays described herein are utilized to ascertain the affinity of compounds of the present application for binding to CB2 relative to CB1 receptors.
HEK293 cells stably expressing human CB2 receptors were grown until a confluent monolayer was formed. Briefly, the cells were harvested and homogenized in TE buffer (50 mM Tris-HCl, 1 mM MgCl2, and 1 mM EDTA) using a polytron for 2×10 second bursts in the presence of protease inhibitors, followed by centrifugation at 45,000×g for 20 minutes. The final membrane pellet was re-homogenized in storage buffer (50 mM Tris-HCl, 1 mM MgCl2, and 1 mM EDTA and 10% sucrose) and frozen at −78° C. until used. Saturation binding reactions were initiated by the addition of membrane preparation (protein concentration of 5 μg/well for human CB2) into wells of a deep well plate containing [^3H]CP 55,940 (120 Ci/mmol, a nonselective CB agonist commercially available from Tocris) in assay buffer (50 mM Tris, 2.5 mM EDTA, 5 mM MgCl2, and 0.5 mg/mL fatty acid free BSA, pH 7.4). After 90 min incubation at 30° C., binding reaction was terminated by the addition of 300 μL/well of cold assay buffer followed by rapid vacuum filtration through a UniFilter-96 GF/C filter plates (pre-soaked in 1 mg/mL BSA for 2 hours). The bound activity was counted in a TopCount using Microscint-20. Saturation experiments were conducted with twelve concentrations of [^3H]CP 55,940 ranging from 0.01 to 8 nM. Competition experiments were conducted with 0.5 nM [^3H]CP 55,940 and five concentrations (0.01 nM to 10 μM) of displacing ligands. The addition of 10 μM unlabeled CP 55,940 (Tocris, Ellisville, Mo.) was used to assess nonspecific binding.

rat CB2 receptors = rat CB2 receptors (Rattus norvegicus (Rat), UniProt Q9QZN9); assay: rat CB2 radioligand binding assay ([3H]CP 55,940 competition); conditions: HEK293 membranes, 0.5 nM [3H]CP 55,940
Protocol: as §1
HEK293 cells stably expressing rat CB2 receptors were grown until a confluent monolayer was formed. Briefly, the cells were harvested and homogenized in TE buffer (50 mM Tris-HCl, 1 mM MgCl2, and 1 mM EDTA) using a polytron for 2×10 second bursts in the presence of protease inhibitors, followed by centrifugation at 45,000×g for 20 minutes. The final membrane pellet was re-homogenized in storage buffer (50 mM Tris-HCl, 1 mM MgCl2, and 1 mM EDTA and 10% sucrose) and frozen at −78° C. until used. Saturation binding reactions were initiated by the addition of membrane preparation (protein concentration of 20 μg/well for rat CB2) into wells of a deep well plate containing [^3H]CP 55,940 (120 Ci/mmol, a nonselective CB agonist commercially available from Tocris) in assay buffer (50 mM Tris, 2.5 mM EDTA, 5 mM MgCl2, and 0.5 mg/mL fatty acid free BSA, pH 7.4). After 45 min incubation at 30° C., binding reaction was terminated by the addition of 300 μl/well of cold assay buffer followed by rapid vacuum filtration through a UniFilter-96 GF/C filter plates (pre-soaked in 1 mg/mL BSA for 2 hours). The bound activity was counted in a TopCount using Microscint-20. Saturation experiments were conducted with twelve concentrations of [^3H]CP 55,940 ranging from 0.01 to 8 nM. Competition experiments were conducted with 0.5 nM [^3H]CP 55,940 and five concentrations of displacing ligands selected from the range of 0.01 nM to 10 μM. The addition of 10 μM unlabeled CP 55,940 (Tocris, Ellisville, Mo.) was used to assess nonspecific binding.

[1] = target: rat CB2 receptors (HEK cells) (Rattus norvegicus (Rat), UniProt Q9QZN9); assay: rat CB2 cyclase functional assay (HitHunter cAMP); assay type: cell-based
Protocol: (§2) The cyclase functional assays were performed using the HitHunter™ cAMP assay kit from DiscoveRx (Fremont, Calif.) according to vendor's protocol. Briefly, HEK cells expressing CB2 or CB1 receptors (rat or human) were detached using cell dissociation buffer (Invitrogen, Carlsbad, Calif.), dispersed and placed in suspension at 10,000 cells per well in 96 well plates prior to the assay. Cell suspensions were incubated at 37° C. for 20 min with variable concentrations of test ligands and or 10 μM CP 55,940-positive control in the presence of a fixed concentration of forskolin (18 μM for rat CB2 and 37 μM for rat CB1) in Dulbescco's phosphate-buffered saline (Invitrogen, Carlsbad, Calif.) supplemented with bovine serum albumin (0.01% final concentration). The reactions were terminated by the addition of lysis buffer and the luminescence was detected following the procedure according to the manufacturer's instructions. EC50 values were calculated using sigmoidal dose-response curve fitting from Prism (GraphPad).

[2] = target: rat CB1 receptors (HEK cells) (Rattus norvegicus (Rat), UniProt P20272); assay: rat CB1 cyclase functional assay (HitHunter cAMP); assay type: cell-based
Protocol: as §2

[3] = HEK cells, forskolin 18 μM, read-out: rat CB2 cyclase (EC50)
[4] = HEK cells, forskolin 37 μM, read-out: rCB1 cyclase (EC50)

rat CB1 receptors (HEK cells), sequence (P20272 whole entry): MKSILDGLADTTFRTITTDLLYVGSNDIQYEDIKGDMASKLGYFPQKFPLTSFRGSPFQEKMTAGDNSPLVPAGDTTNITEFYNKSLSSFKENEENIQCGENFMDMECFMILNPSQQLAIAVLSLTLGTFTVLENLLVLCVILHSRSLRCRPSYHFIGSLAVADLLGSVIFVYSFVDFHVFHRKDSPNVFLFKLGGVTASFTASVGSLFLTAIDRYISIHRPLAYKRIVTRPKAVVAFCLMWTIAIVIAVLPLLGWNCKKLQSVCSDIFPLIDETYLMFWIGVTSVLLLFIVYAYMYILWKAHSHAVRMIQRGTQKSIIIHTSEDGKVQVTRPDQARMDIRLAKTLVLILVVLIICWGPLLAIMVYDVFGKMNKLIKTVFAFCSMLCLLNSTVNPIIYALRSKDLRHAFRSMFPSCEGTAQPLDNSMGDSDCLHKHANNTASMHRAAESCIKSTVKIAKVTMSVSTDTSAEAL
human CB2 receptors, sequence (P34972 whole entry): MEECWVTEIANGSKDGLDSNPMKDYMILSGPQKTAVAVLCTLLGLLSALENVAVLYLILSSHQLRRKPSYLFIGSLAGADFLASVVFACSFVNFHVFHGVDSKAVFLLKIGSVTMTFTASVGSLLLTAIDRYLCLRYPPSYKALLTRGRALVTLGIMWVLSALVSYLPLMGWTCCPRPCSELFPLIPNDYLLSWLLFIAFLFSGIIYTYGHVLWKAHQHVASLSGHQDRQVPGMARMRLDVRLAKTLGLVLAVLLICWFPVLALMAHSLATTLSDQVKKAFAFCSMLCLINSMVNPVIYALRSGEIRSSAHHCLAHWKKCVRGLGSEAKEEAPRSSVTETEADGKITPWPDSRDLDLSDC

SMILES	Ki (human CB2 receptors) [nM]	Ki (rat CB2 receptors) [nM]	EC50 [1, 3] [nM]	EC50 [2, 4] [nM]	EC50 [2] [nM]	EC50 [1] [nM]
CN1CCCC[C@H]1COc1ccc(C(F)(F)F)cc1C(=O)/N=c1\sc(C(C)(C)C)cn1C[C@H]1CCCO1 [Example 5]	0.7	1.4	0.15	612	–	–
CC(C)(C)c1cn(C[C@H]2CCCO2)/c(=N/C(=O)c2cc(C(F)(F)F)ccc2OCc2ccccc2)s1 [Example 36, 2-(benzyloxy)-N-[(2Z)-5-tert-butyl-3-[(2R)-tetrahydrofuran-2-ylmethyl]-1,3-thiazol-2(3H)-ylidene]-5-(trifluoromethyl)benzamide]	6	2.9	1.47	–	6560	–
CC(C)(C)c1cn(C[C@H]2CCCO2)/c(=N/C(=O)c2cc(C(F)(F)F)ccc2OC[C@H]2CCC[N+]2(C)[O-])s1 (some centres unmarked) [Example 49]	24	12	0.45	7760	–	–
CN1CCC[C@@H]1COc1ccc(C(F)(F)F)cc1C(=O)/N=c1\sc(C(C)(C)C)cn1C[C@H]1CCCO1 [Example 26, N-[(2Z)-5-tert-butyl-3-[(2R)-tetrahydrofuran-2-ylmethyl]-1,3-thiazol-2(3H)-ylidene]-2-{[(2R)-1-methylpyrrolidin-2-yl]methoxy}-5-(trifluoromethyl)benzamide]	206	70	2.18	–	11200	–
CC(C)(O)CCOc1ccc(C(F)(F)F)cc1C(=O)/N=c1\sc(C(C)(C)C)cn1C[C@H]1CCCO1 [Example 50, N-[(2Z)-5-tert-butyl-3-[(2R)-tetrahydrofuran-2-ylmethyl]-1,3-thiazol-2(3H)-ylidene]-2-(3-hydroxy-3-methylbutoxy)-5-(trifluoromethyl)benzamide]	1.3	0.5	–	–	1870	1.21
CC(=NOc1ccc(C(F)(F)F)cc1C(=O)/N=c1\sc(C(C)(C)C)cn1C[C@H]1CCCO1)C(F)(F)F [Example 80, N-[(2Z)-5-tert-butyl-3-[(2R)-tetrahydrofuran-2-ylmethyl]-1,3-thiazol-2(3H)-ylidene]-5-(trifluoromethyl)-2-({[2,2,2-trifluoro-1-methylethylidene]amino}oxy)benzamide]	4.4	4.8	–	–	> 27000	–
CC(C)(C)/C(COc1ccc(C(F)(F)F)cc1C(=O)/N=c1\sc(C(C)(C)C)cn1C[C@H]1CCCO1)=N\O [Example 71, N-[(2Z)-5-tert-butyl-3-[(2R)-tetrahydrofuran-2-ylmethyl]-1,3-thiazol-2(3H)-ylidene]-2-{[(2E)-2-(hydroxyimino)-3,3-dimethylbutyl]oxy}-5-(trifluoromethyl)benzamide]	5.4	4.1	–	–	> 27000	–
Cn1cncc1COc1ccc(C(F)(F)F)cc1C(=O)/N=c1\sc(C(C)(C)C)cn1C[C@H]1CCCO1 [Example 67, N-[(2Z)-5-tert-butyl-3-[(2R)-tetrahydrofuran-2-ylmethyl]-1,3-thiazol-2(3H)-ylidene]-2-[(1-methyl-1H-imidazol-5-yl)methoxy]-5-(trifluoromethyl)benzamide]	115	13	–	> 27000	–	–
CC(C)(C)NNc1ccc(C(F)(F)F)cc1C(=O)/N=c1\sc(C(C)(C)C)cn1C[C@H]1CCCO1 [Example 39, 2-(2-tert-butylhydrazino)-N-[(2Z)-5-tert-butyl-3-[(2R)-tetrahydrofuran-2-ylmethyl]-1,3-thiazol-2(3H)-ylidene]-5-(trifluoromethyl)benzamide]	3.7	1.7	–	> 27000	–	–
CC(C)(C)NOc1ccc(C(F)(F)F)cc1C(=O)/N=c1\sc(C(C)(C)C)cn1C[C@H]1CCCO1 [Example 65, 2-[(tert-butylamino)oxy]-N-[(2Z)-5-tert-butyl-3-[(2R)-tetrahydrofuran-2-ylmethyl]-1,3-thiazol-2(3H)-ylidene]-5-(trifluoromethyl)benzamide]	1.8	0.8	–	–	> 27000	–
